Data published in patent US4025533A, “5-Bromo-5-nitro-2-alkylsubstituted-1,3-dioxane” (Eli Lilly and Company, priority 1976, dated 1977).
≈ marks a conversion by molar mass, not a printed value.

What was measured:
[1] = solubility in water and mineral oil; assay type: physicochemical; conditions: compared with other species of the invention
[2] = chemical stability towards pH / alkali; assay type: physicochemical; conditions: pH 5-9
human skin = conditions: in vivo
Excerpt: The following protocol was followed in testing each compound.
Two-hundred subjects were employed in each investigation. The repeated insult technique was used in the patch test. A different group of subjects were utilized for each evaluation.
The technique used for the patch test called for a series of 9 induction patches of each test material to be placed on each of the subjects. The series was followed two weeks later by a single "challenge" patch of each test material to detect skin sensitization.
The series of nine induction patches was applied on Monday, Wednesday and Thursday and allowed to contact the skin for 24 hours, after which time they were removed and the skin sites graded for irritation. Thursday's patches were placed immediately after removal and grading of Wednesday's applications. After the ninth induction patches had been placed, a non-patching period of 2 weeks elapsed before the challenge patches were applied to detect sensitization reactions. For this 24-hour patch, a new skin site was used. This site was invariably chosen adjacent to an induction site; i.e., one where repeated applications had been made during the series of nine induction patches. The challenge applications were graded at 24 and 72 hours after application.
The skin applications for each material were made using oval-shaped adhesive patches (1" × 11/4") with circular gauze centers. The gauze centers were coated with approximately 0.03 ml. of the respective test material just prior to application.
The scoring criteria used for skin irritation reactions and in evaluating the sensitization evidenced on the challenge application follows:
Four separate formulations of each compound were tested along with two formulations of parabens.
A reading of 5 or more on the 8-point scale was deemed to be indicative of the development of skin sensitization to the test compound.

Streptococcus faecalis [3] = experiment: in vitro agar plate determination (Table VII); assay type: cell-based; conditions: Enterococcus faecalis; agar plates at 10, 25 and 50 mcg. per ml., 24 hours; read-out: Minimum Inhibitory Concentration
Procedure: (§1) The antimicrobial activities of […] (Compound G) were determined concurrently with 5-bromo-2-methyl-5-nitro-1,3-dioxane (Compound C) and 5-bromo-5-nitro-1,3-dioxane (Compound B) against the same six organisms shown in Table II. […] The tests were in vitro determinations utilizing agar plates containing the active compound at 10, 25 and 50 mcg. per ml. of agar. The organisms, at concentrations of 10^6 organisms per milliliter, were streaked on the solidified agar. The plates were incubated for 24 hours and the presence or absence of growth noted. The minimum inhibitory concentration (MIC) was determined as the lowest active compound concentration in the agar where no growth occurred.

Candida albicans [4] = experiment: in vitro agar plate determination (Table VII); assay type: cell-based; conditions: agar plates at 10, 25 and 50 mcg. per ml., 24 hours, read-out: Minimum Inhibitory Concentration
Procedure: as §1

Escherichia coli [5] = experiment: in vitro agar plate determination (Table VII); assay type: cell-based; conditions: agar plates at 10, 25 and 50 mcg. per ml., 24 hours, read-out: Minimum Inhibitory Concentration
Procedure: as §1

Pseudomonas aeruginosa [6] = experiment: in vitro agar plate determination (Table VII); assay type: cell-based; conditions: agar plates at 10, 25 and 50 mcg. per ml., 24 hours, read-out: Minimum Inhibitory Concentration
Procedure: as §1

Aspergillus niger [7] = experiment: in vitro agar plate determination (Table VII); assay type: cell-based; conditions: agar plates at 10, 25 and 50 mcg. per ml., 24 hours, read-out: Minimum Inhibitory Concentration
Procedure: as §1

Staphylococcus aureus [8] = experiment: in vitro agar plate determination (Table VII); assay type: cell-based; conditions: agar plates at 10, 25 and 50 mcg. per ml., 24 hours, read-out: Minimum Inhibitory Concentration
Procedure: as §1

microorganisms = experiment: antimicrobial tests on isomeric mixtures; assay type: cell-based; conditions: one high in the cis- form, the other high in the trans- form
Procedure: The novel compounds of this embodiment of the present invention, exemplified in Examples 1, 2, 3, and 4 can exist as cis- and trans-isomers. The procedure outlined in Example 1 produces a ratio of isomers of about 9:1. It is the intent of this invention to include both geometric isomers as chemical entities as well as the isomeric mixture. […] Consequently, the utility tests described hereinafter were conducted employing the isomeric mixture (about 9:1) prepared as detailed in Example 1.

Streptococcus faecalis [9] = experiment: conventional tube dilution test (Table I); assay type: cell-based; conditions: Enterococcus faecalis, 48 h, antibiotic Number 3 medium, two days at 37° C., read-out: Minimum Inhibitory Concentration
Procedure: (§2) The in vitro antimicrobial activities of Compounds A, B and C, 5-bromo-2-ethyl-5-nitro-1,3-dioxane (Compound D), 5-bromo-5-nitro-2-n-propyl-1,3-dioxane (Compound E), and 5-bromo-2-isopropyl-5-nitro-1,3-dioxane (Compound F) were determined concurrently against Pseudomonas aeruginosa, Staphylococcus aureus, Escherichia coli, and Streptococcus faecalis in a conventional tube dilution test. The medium used was antibiotic Number 3 [CFR 436.102(3)] and the concentration of organisms was 10^4 organisms per ml of medium, with each tube being inoculated with 0.1 ml of inoculum. The figures shown in Table I are the lowest concentrations in mcg of active compound/ml of medium where no growth occurred in the medium after two days' incubation at 37° C.

Escherichia coli [10] = experiment: conventional tube dilution test (Table I); assay type: cell-based; conditions: 48 h, antibiotic Number 3 medium, two days at 37° C., read-out: Minimum Inhibitory Concentration
Procedure: as §2

Pseudomonas aeruginosa [11] = experiment: conventional tube dilution test (Table I); assay type: cell-based; conditions: 48 h, antibiotic Number 3 medium, two days at 37° C., read-out: Minimum Inhibitory Concentration
Procedure: as §2

Staphylococcus aureus [12] = experiment: conventional tube dilution test (Table I); assay type: cell-based; conditions: 48 h, antibiotic Number 3 medium, two days at 37° C., read-out: Minimum Inhibitory Concentration
Procedure: as §2

Propionibacterium acnes = experiment: conventional tube dilution test, anaerobic; assay type: cell-based; conditions: Cutibacterium acnes, medium pH 6.9, read-out: minimum inhibitory concentration
Procedure: For example, 5-bromo-2-methyl-5-nitro-1,3-dioxane (Compound C) was tested against Propionibacterium acnes (formerly called Corynebacterium acnes) in a conventional tube dilution test. A simultaneous test was run utilizing 2-bromo-2-nitropropane,1,3-diol (Compound A) and 5-bromo-5-nitro-1,3-dioxane (Compound B) as the antimicrobials.
The test against Propionibacterium acnes were run anaerobically in the following medium:
(§3) Distilled water q.s. -- 1000 ml
The pH of the medium was 6.9

Chaetomium globosum = experiment: In Vitro Antifungal Activity, agar plates (Table III); assay type: cell-based; conditions: 72 h, three days at 25° C., pH 5.7, read-out: Minimum Inhibitory Concentration
Procedure: (§4) Compounds A, B, and C were tested further to determine antifungal activity. The compounds were added to melted and cooled (50° C.) agar to obtain concentrations of 100, 50, 25, 12.5, 6.25 and 0.0 mcg per ml of agar. After the agar solidified, sterile cotton swabs were dipped in stock suspensions of the organisms (10^6 organisms per ml of physiological saline) and then streaked across the agar. After three days' incubation at 25° C., concentrations which prevented growth were recorded as the minimal inhibitory concentration. The composition of the medium used in this study was as follows:
(§5) Calcium carbonate -- 0.5 g
(§6) V-8 juice filtrate -- 200.0 ml
as §3
(§7) The pH was adjusted to 5.7.

Aspergillus fumigatus = experiment: as above; assay type: cell-based; conditions: 72 h, three days at 25° C., pH 5.7, read-out: Minimum Inhibitory Concentration
Procedure: as §4, §5, §6, §3, §7

Colletotrichum phomoides = experiment: as above; assay type: cell-based; conditions: 72 h, three days at 25° C., pH 5.7, read-out: Minimum Inhibitory Concentration
Procedure: as §4, §5, §6, §3, §7

Rhodotorula glutinis = experiment: as above; assay type: cell-based; conditions: 72 h, three days at 25° C., pH 5.7, read-out: Minimum Inhibitory Concentration
Procedure: as §4, §5, §6, §3, §7

Microsporum gypseum = experiment: as above; assay type: cell-based; conditions: Nannizzia gypsea, 72 h, three days at 25° C., pH 5.7, read-out: Minimum Inhibitory Concentration
Procedure: as §4, §5, §6, §3, §7

[13] = system: Fusarium oxysporum cubense; experiment: as above; assay type: cell-based; conditions: 72 h, three days at 25° C., pH 5.7, read-out: Minimum Inhibitory Concentration
Procedure: as §4, §5, §6, §3, §7

[14] = system: Saccharomyces pastorianus; experiment: as above; assay type: cell-based; conditions: 72 h, three days at 25° C., pH 5.7, read-out: Minimum Inhibitory Concentration
Procedure: as §4, §5, §6, §3, §7

Penicillium notatum = experiment: as above; assay type: cell-based; conditions: Penicillium chrysogenum, 72 h, three days at 25° C., pH 5.7, read-out: Minimum Inhibitory Concentration
Procedure: as §4, §5, §6, §3, §7

Aspergillus terreus = experiment: as above; assay type: cell-based; conditions: 72 h, three days at 25° C., pH 5.7, read-out: Minimum Inhibitory Concentration
Procedure: as §4, §5, §6, §3, §7

Botrytis cinerea = experiment: as above; assay type: cell-based; conditions: 72 h, three days at 25° C., pH 5.7, read-out: Minimum Inhibitory Concentration
Procedure: as §4, §5, §6, §3, §7

Streptococcus faecalis [15] = experiment: agar plate system (Table II); assay type: cell-based; conditions: Enterococcus faecalis, antibiotic medium 1, 72 hours at 30° C., read-out: Minimum Inhibitory Concentration
Procedure: (§8) The antimicrobial activities of Compounds A, B, C, D, E and F were also determined in an agar plate system. The compounds were added to melted and cooled (50° C.) agar in twofold concentration increments from 50 mcg per ml of agar to 1.56 mcg per ml of agar. Antibiotic medium 1 [CFR 436.102(1)] was used for testing of Pseudomonas aeruginosa, Staphylococcus aureus, Escherichia coli, and Streptococcus faecalis, but antibiotic medium 22 [CFR 436.102(22)] was used for testing of Candida albicans and Aspergillus niger. Organism suspensions containing 10^6 organisms per ml were used as stock suspensions. Sterile cotton swabs were dipped in the suspensions and then streaked across the solidified agar. The figures shown in Table II were the lowest concentrations at which no growth occurred after 72 hours at 30° C. These values were interpreted as the minimum inhibitory concentration (MIC).

Candida albicans [16] = experiment: agar plate system (Table II); assay type: cell-based; conditions: antibiotic medium 22, 72 hours at 30° C., read-out: Minimum Inhibitory Concentration
Procedure: as §8

Escherichia coli [17] = experiment: agar plate system (Table II); assay type: cell-based; conditions: antibiotic medium 1, 72 hours at 30° C., read-out: Minimum Inhibitory Concentration
Procedure: as §8

Pseudomonas aeruginosa [18] = experiment: agar plate system (Table II); assay type: cell-based; conditions: antibiotic medium 1, 72 hours at 30° C., read-out: Minimum Inhibitory Concentration
Procedure: as §8

Aspergillus niger [19] = experiment: agar plate system (Table II); assay type: cell-based; conditions: antibiotic medium 22, 72 hours at 30° C., read-out: Minimum Inhibitory Concentration
Procedure: as §8

Staphylococcus aureus [20] = experiment: agar plate system (Table II); assay type: cell-based; conditions: antibiotic medium 1, 72 hours at 30° C., read-out: Minimum Inhibitory Concentration
Procedure: as §8

## CC1OCC(Br)([N+](=O)[O-])CO1 (stereo not shown) [Compound C, 5-bromo-2-methyl-5-nitro-1,3-dioxane]
[1]
  solubility in water and oil, qualitative: superior solubility in water and oil
[2]
  chemical stability at pH: chemically stable at pH's from 5.0 to 9.0
Human skin
  subjects evaluated as being sensitive on the challenge test: none
Streptococcus faecalis [3]
  MIC: 12.5 µg/mL (≈ 55.3 µM)
Candida albicans [4]
  MIC: 6.25 µg/mL (≈ 27.7 µM)
Escherichia coli [5]
  MIC: 12.5 µg/mL (≈ 55.3 µM)
Pseudomonas aeruginosa [6]
  MIC: 25 µg/mL (≈ 111 µM)
Aspergillus niger [7]
  MIC: 12.5 µg/mL (≈ 55.3 µM)
Staphylococcus aureus [8]
  MIC: 12.5 µg/mL (≈ 55.3 µM)
microorganisms
  antimicrobial activity of isomeric mixtures: equal activity
Streptococcus faecalis [9]
  MIC: 25 µg/mL (≈ 111 µM)
Escherichia coli [10]
  MIC: 25 µg/mL (≈ 111 µM)
Pseudomonas aeruginosa [11]
  MIC: 25 µg/mL (≈ 111 µM)
Staphylococcus aureus [12]
  MIC: 25 µg/mL (≈ 111 µM)
Propionibacterium acnes
  MIC: 6.25 µg/mL (≈ 27.7 µM)
Chaetomium globosum
  MIC: < 6.25 µg/mL
Aspergillus fumigatus
  MIC: < 6.25 µg/mL
Colletotrichum phomoides
  MIC: 100 µg/mL (≈ 442 µM)
Rhodotorula glutinis
  MIC: 100 µg/mL (≈ 442 µM)
Microsporum gypseum
  MIC: 100 µg/mL (≈ 442 µM)
[13]
  MIC: 12.5 µg/mL (≈ 55.3 µM)
[14]
  MIC: > 100 µg/mL
Penicillium notatum
  MIC: 25 µg/mL (≈ 111 µM)
Aspergillus terreus
  MIC: 12.5 µg/mL (≈ 55.3 µM)
Botrytis cinerea
  MIC: 12.5 µg/mL (≈ 55.3 µM)
Streptococcus faecalis [15]
  MIC: 12.5 µg/mL (≈ 55.3 µM)
Candida albicans [16]
  MIC: 6.25 µg/mL (≈ 27.7 µM)
Escherichia coli [17]
  MIC: 12.5 µg/mL (≈ 55.3 µM)
Pseudomonas aeruginosa [18]
  MIC: 25 µg/mL (≈ 111 µM)
Aspergillus niger [19]
  MIC: 12.5 µg/mL (≈ 55.3 µM)
Staphylococcus aureus [20]
  MIC: 12.5 µg/mL (≈ 55.3 µM)
